From US8729053B2, “Nuclear factor kappa B pathway inhibitor composition and use of same” (The United States of America, as represented by the …, priority 2008, dated 2014)
Counter-ions that a name gives are not always drawn.

Columns and labels:
HEK293T cells = test: XTT assay in HEK293T cells; format: cell-based
Protocol: To evaluate whether the compound I biological activity can imitate TAM67 specificity, three different transcriptional promoter reporters were used, AP-1, NFκB, and SRE (Serum response element) in luciferase reporter assays (FIG. 1A: The transfected cells were pre-treated with varied concentrations of compound I or DMSO for 1 hour before 18 hours stimulation by TPA (10 ng/ml) or DMSO as vehicle. An asterisk (*) indicates a separate experiment with NFκB dependent luciferase only. Assays were performed with two independent experiments each in quadruplicate.). All three activities were induced by TPA but only induction of AP-I and NFκB were inhibited by TAM67. The SRE reporter was used as a specificity control and indicator of cell proliferation. TPA-induced SRE activity was not repressed by TAM67 when coexpressed with the SRE-Luc reporter in HEK293 cells. The same concentration (10 ng/ml, 16.2 nM) and incubation time (18 hrs) were used for TPA induction as previously used for the high throughput screen (HTS) (Ruocco et al., J. Biomol. Screen., 2007, 12, 133-9) along with 1 h pretreatment of compound I. The screening results had tested concentrations as high as 40 μM compound I with cell numbers showing 95.5+/−6.2% of DMSO control (ave+/− sd, n=3) by the XTT assay in HEK293T cells.

IKKβ = biological target: T1, IKKβ (Homo sapiens, UniProt O14920); test: Off-chip incubation mobility-shift kinase assay, IKKβ; format: biochemical
T1 construct: purchased Calbiochem
T1 sequence (O14920 1-756): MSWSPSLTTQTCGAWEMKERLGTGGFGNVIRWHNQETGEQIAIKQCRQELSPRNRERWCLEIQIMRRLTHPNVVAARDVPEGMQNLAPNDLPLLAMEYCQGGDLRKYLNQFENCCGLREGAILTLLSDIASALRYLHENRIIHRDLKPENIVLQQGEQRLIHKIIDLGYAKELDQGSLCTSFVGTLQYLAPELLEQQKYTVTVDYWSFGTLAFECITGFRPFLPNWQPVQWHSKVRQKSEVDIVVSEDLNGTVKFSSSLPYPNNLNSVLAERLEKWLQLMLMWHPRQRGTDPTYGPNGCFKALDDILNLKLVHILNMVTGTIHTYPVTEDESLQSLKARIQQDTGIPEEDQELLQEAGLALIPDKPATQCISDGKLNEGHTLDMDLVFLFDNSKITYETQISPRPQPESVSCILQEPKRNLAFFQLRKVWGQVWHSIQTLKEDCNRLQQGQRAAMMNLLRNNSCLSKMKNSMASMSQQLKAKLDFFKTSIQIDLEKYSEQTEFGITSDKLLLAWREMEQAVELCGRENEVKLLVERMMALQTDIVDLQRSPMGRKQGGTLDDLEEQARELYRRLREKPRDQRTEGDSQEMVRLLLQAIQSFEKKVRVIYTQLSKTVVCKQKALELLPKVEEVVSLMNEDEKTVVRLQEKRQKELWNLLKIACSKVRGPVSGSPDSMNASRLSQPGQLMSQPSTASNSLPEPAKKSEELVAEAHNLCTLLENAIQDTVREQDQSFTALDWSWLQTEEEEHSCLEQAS
Protocol: In an attempt to determine whether compound I interferes with ATP binding to the catalytic site, the activity of compound I was measured with fully activated, phosphorylated IKKα or IKKβ. […] However, whether this compound interacts outside of the ATP binding pocket of IKK as an ATP non-competitive inhibitor similar to BMS-345541 is unknown. […] Luciferase activities with TPA induction alone were set at 100% and the relative activities with TPA in the presence of compounds are shown.

uPAR promoter = uPAR promoter luciferase reporter assay in HEK293 cells; format: cell-based, human; details: TPA 10 ng/ml 18 hours
Protocol: All expression plasmids were transiently transfected into HEK293 cells in a 96-well plate (0.1 μg/well) by using Effectene transfection reagent (Qiagen, Valencia, Calif.) according to the manufacturer's manual. HEK293 cells were maintained in Dulbecco's modified Eagle medium (Sigma, St. Louis, Mo.) supplemented with 10% fetal bovine serum (Atlanta Biologicals, Lawrenceville, Ga.) and incubated at 37° C. in a 5% CO2 incubator. After 24 hrs incubation, the medium was changed to DMEM with 0.2% FBS, and the transfectants were exposed to various concentrations of compound I and TPA (10 ng/ml). Cells were lysed with passive lysis buffer and the luciferase assay was performed using the Firefly-Luciferase reporter assay system (Promega, Madison, Wis.) and MLX Luminometer (Dynex Technology, Chantilly, Va.).
Three different luciferase reporter genes, AP-1 reporter containing four times TRE consensus originated from GCN4 and SRE reporter purchased from Stratagene (La Jolla, Calif.) respectively are as described previously (Suzukawa et al., Environ. Health Perspect., 2002, 110, 865-70). […]
Inhibition of NFκB transactivation would be expected to result in suppressed expression of genes whose transcription depends on NFκB. Quantitative RT-PCR was used to measure endogenous levels of IL-6 mRNA, transcribed from a gene whose transcription depends on NFκB but not AP-1. […]

[1] = system: NCI-60 panel of human cancer cell lines; test: NCI-60 cancer screen, growth inhibition; format: cell-based
Description: Thus in addition to inhibiting tumorigenesis (transformation) and tumor progression (invasion), compound I may have potential for tumor growth inhibition in some cancer sites.

cell proliferation = test: Cell proliferation; format: cell-based

Cell numbers, % of DMSO control (ave+/− sd, n=3) (HEK293T cells; 40 μM, XTT assay, HEK293T): 95.5+/−6.2%
Binding to the ATP binding pocket of IKKβ (IKKβ): no activity
Inhibition of IKKβ activity, phosphorylation of a peptide substrate (IKKβ; fully activated, phosphorylated IKKβ, 1.25, 2.50, 5.00, and 10.00 μM): does not inhibit
Compound: Cc1cc(N)ccc1N=Nc1ccc(S(=O)(=O)CCOS(=O)(=O)O)cc1 [compound I, 2-(4-((4-amino-2-methylphenyl)diazenyl)phenylsulfonyl)ethyl hydrogen sulfate]
Cytotoxic or cytostatic activity (HEK293T cells; HEK293 cells): neither cytotoxic nor cytostatic activity
uPAR luciferase activity (uPAR promoter): dose-dependent inhibition
inhibition at 1 µM ([1]; Homo sapiens, compound at 1 μM, read-out: Growth inhibition of leukemia lines): > 50%
Killing of leukemia lines ([1]; concentrations up to 100 μM): does not kill
Sensitivity of leukemia and breast cancer cell lines versus lines from other cancer sites ([1]; growth inhibition): more sensitive
Concentration at which most of the NCI-60 lines showed growth inhibition ([1]; most of the NCI-60 human cancer cell lines): greater than 10 μM
Suppression of cell proliferation (cell proliferation): does not suppress
